Test results reported in article PMC12316928, “Synthesis and evaluation of novel thiohydantoin derivatives for antidiabetic activity using in silico in vitro and in vivo methods” (Scientific Reports, 2025).
In brackets after ≈: the same amount, converted by molar mass. Several values for one entry are separate records, joined by “and”; a condition that tells them apart may be missing. Equal values may be shown once. Entries after “also recorded” stand apart in the source; their conditions may differ. Read-outs that look alike come from different tables or passages of the source.

Assays:
α-amylase = molecular target: T1, α-amylase (Sus scrofa, UniProt P00690); experiment: α-Amylase inhibitory activity assay (DNSA method); assay type: biochemical
T1 sequence (P00690 16-511): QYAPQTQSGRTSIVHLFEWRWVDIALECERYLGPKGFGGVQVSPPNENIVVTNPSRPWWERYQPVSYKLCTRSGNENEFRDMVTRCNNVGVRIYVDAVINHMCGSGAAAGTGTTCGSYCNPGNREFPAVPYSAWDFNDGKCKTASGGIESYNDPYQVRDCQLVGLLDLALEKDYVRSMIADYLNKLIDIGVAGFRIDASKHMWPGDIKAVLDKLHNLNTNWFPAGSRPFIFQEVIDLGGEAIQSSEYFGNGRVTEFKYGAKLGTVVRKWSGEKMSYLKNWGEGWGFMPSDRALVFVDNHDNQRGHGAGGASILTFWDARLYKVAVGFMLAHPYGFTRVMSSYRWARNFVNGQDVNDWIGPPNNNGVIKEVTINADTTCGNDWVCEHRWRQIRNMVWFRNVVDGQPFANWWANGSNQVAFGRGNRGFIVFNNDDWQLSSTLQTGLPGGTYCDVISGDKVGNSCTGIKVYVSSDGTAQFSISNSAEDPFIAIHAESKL
Protocol: The inhibitory potential of the synthesized derivatives against α-amylase was determined using the DNSA (3,5-dinitrosalicylic acid) colorimetric method, as reported by Bernfeld[37]. The α-amylase enzyme (from Sigma-Aldrich) was prepared in 20 mM sodium phosphate buffer (pH 6.9). […] After incubation, 100 µL of DNSA reagent was added, and the mixture was heated at 85 °C for 15 min. The reaction was stopped by cooling, and the absorbance was measured at 595 nm. A blank control was prepared to adjust background absorbance, and the percentage inhibition was calculated.

3T3 fibroblast cell line = experiment: Cytotoxicity MTT assay; assay type: cell-based; conditions: for IC₅₀ cytotoxicity MTT: 48 h, Mean ± SD, n = 3
Protocol: (§1) The cytotoxic effects of the selected compounds were evaluated against the 3T3 fibroblast cell line (Sigma-Aldrich, product no. 90020107) using the MTT (3-(4,5-dimethylthiazol-2-yl)−2,5-diphenyl tetrazolium bromide) assay, following the protocol established by Mosmann[38]. A cell suspension containing 1 × 10⁵ cells per well was seeded into a 96-well plate and incubated at 37 °C with 5% CO₂ for 48 h. The cells were then treated with different concentrations of test compounds (4, 16, 63, 250, and 1000 µg/mL, dissolved in DMSO) and incubated for an additional 48 h. Following incubation, 180 µL of MTT solution (5 mg/mL in PBS) was added to each well and incubated for 4 h. The formazan crystals formed were solubilized, and absorbance was measured at 570 nm using an ELISA reader. Celecoxib was used as a positive control.

Cytotoxicity MTT assay = assay type: cell-based; conditions: mouse, 3T3 fibroblast cells, 48 h, Mean ± SD, n = 3, read-out: IC₅₀ cytotoxicity MTT
Protocol: as §1

[1] = tested on: STZ-induced diabetic rats; experiment: Physiological parameters (lipid profile); assay type: in vivo, Sprague Dawley rats; conditions: Fig. 1
Protocol: (§2) Diabetes will be induced in rats (n = 6 per group) by a single intraperitoneal injection of 60-100 mg/kg body weight (BW) streptozotocin dissolved in normal saline. After 5 days of streptozotocin injection, the tail vein blood will be collected to determine the fasting blood glucose (FBG) level. Only rats with FBG over 200 mg/dl will be considered diabetic and used for further experimentation.
Animals will be sacrificed after […] of treatment and parameters including LDL, triglycerides, HDL cholesterol, and glucose will be determined by using KONELAB SYSTEM (Thermo Fisher Scientific, Finland) according to manufacturer’s guidelines.

[2] = DPPH free radical scavenging assay
Protocol: The antioxidant activity of synthesized compounds was evaluated using the DPPH free-radical scavenging assay, following the methodology outlined by[34]. This assay is based on the principle that the stable free radical DPPH undergoes a color change from deep purple to yellow upon reduction, indicating hydrogen donation from antioxidant compounds. Different concentrations (3.12, 6.25, 12.5, 25, 50, 100, and 200 µg/mL) of test compounds were prepared in methanol. A 200 µL aliquot of each concentration was mixed with 50 µL of freshly prepared DPPH solution (0.659 mM). The reaction mixtures were incubated at room temperature for 20 min in the dark. Absorbance was recorded at 510 nm using an ELISA microplate reader. Trolox was employed as the reference antioxidant, and the percentage of inhibition was calculated using the following equation:
% Inhibition = [(A0 − A1)/A0] × 100.
Where A0 is the absorbance of the control, and A1 is the absorbance of the sample[34].

[3] = tested on: STZ-induced diabetic rats; experiment: Effect on FBG, body weight and HbA1C over 6 weeks; assay type: in vivo, Sprague Dawley rats; design: % Reduction in FBG: concentration or dose not given beside the values
Protocol: as §2
Diabetic Rats (n = 6 per group) will be randomly assigned to groups of six animals each in order to examine the impact of synthetic derivatives on FBG level, BW, and HbA1C. The course of treatment will last for six weeks. At the beginning of the experiment and at weekly intervals during the first 42 days of therapy, the FBG level and BW will be measured. Rats will be denied food for 12 h while fasting, but they will have unrestricted access to water. Commercial glucose oxidase kits will be used to measure the blood glucose level. Blood 7 will be collected through cardiac puncture at the end of study period and levels of HbA1C will be determined. Metformin will be used as standard for comparison purpose.

[4] = molecular target: T2, α-glucosidase (EC3.2.1.20) (Saccharomyces cerevisiae, UniProt P53341); experiment: α-Glucosidase inhibitory activity assay; assay type: biochemical; conditions: for inhibition at 200 µg/mL: read-out: %Inhibition (200 µg/ml) alpha glucosidase
T2 construct: purchased Sigma-Aldrich
T2 sequence (P53341 whole entry): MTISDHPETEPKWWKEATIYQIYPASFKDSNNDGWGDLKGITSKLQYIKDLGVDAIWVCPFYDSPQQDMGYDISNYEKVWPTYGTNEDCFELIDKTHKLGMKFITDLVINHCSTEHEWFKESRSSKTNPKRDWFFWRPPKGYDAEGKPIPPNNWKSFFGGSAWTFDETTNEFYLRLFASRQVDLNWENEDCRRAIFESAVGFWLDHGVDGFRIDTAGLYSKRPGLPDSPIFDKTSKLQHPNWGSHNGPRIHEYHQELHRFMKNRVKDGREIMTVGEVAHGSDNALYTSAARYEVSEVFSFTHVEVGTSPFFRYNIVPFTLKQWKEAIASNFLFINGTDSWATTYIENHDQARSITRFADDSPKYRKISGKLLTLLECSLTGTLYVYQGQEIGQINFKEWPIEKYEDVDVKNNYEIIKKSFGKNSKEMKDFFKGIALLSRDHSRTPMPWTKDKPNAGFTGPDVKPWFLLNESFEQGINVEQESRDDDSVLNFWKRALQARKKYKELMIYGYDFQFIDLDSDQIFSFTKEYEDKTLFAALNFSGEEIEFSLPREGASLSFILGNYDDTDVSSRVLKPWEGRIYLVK
Protocol: The ability of the synthesized compounds to inhibit α-glucosidase was determined as per the method described by[35]. […] After incubation at 37 °C for 10 min, the reaction was initiated by adding 25 µL of substrate (4 mM) and further incubating at 37 °C for 20 min. The absorbance was measured at 405 nm.

[5] = tested on: STZ-induced diabetic rats; experiment: Fasting blood glucose and oral glucose tolerance test (OGTT); assay type: in vivo, Sprague Dawley rats; conditions: for OGTT (after 120 min): 120 min after glucose 2.0 g/kg; for Fasting blood glucose: Table 7, mean ± SD, 5 rats per group; for FBG and OGTT reduction in words: compared to diabetic control
Protocol: […] After 5 days of streptozotocin injection, the tail vein blood will be collected to determine the fasting blood glucose (FBG) level. Only rats with FBG over 200 mg/dl will be considered diabetic and used for further experimentation.
This assay will be performed in animals after fasting for an overnight (12 h). Then, rats will receive a bolus of glucose (2.0 g/kg body weight) followed by test molecule or control and plasma glucose will be measured from blood collected from tail vein at 0, 30, 60, 90 and 120 min after glucose administration. Plasma glucose levels will be analyzed using commercially available glucometer kits[40].

| Structure (SMILES) | Cytotoxicity category (3T3 fibroblast cell line) | IC₅₀ cytotoxicity MTT (3T3 fibroblast cell line) [µg/mL] | IC50 at 48 h (Cytotoxicity MTT assay) [µg/mL] | alpha-amylase inhibition in words (α-amylase) | DPPH free radical scavenging % inhibition ([2]; 3.12 µg/mL) [%] | DPPH free radical scavenging % inhibition ([2]; 6.25 µg/mL) [%] | DPPH free radical scavenging % inhibition ([2]; 12.5 µg/mL) [%] | DPPH free radical scavenging % inhibition ([2]; 25 µg/mL) [%] | DPPH free radical scavenging % inhibition ([2]; 50 µg/mL) [%] | DPPH free radical scavenging % inhibition ([2]; 100 µg/mL) [%] | DPPH free radical scavenging % inhibition ([2]; 200 µg/mL) [%] | inhibition at 200 µg/mL [4] [%] | OGTT (after 120 min) [5] [mg/dL] | Fasting blood glucose [5] [mg/dL] | FBG and OGTT reduction in words [5] | alpha-glucosidase inhibition in words [4] | also measured |
| --- | --- | --- | --- | --- | --- | --- | --- | --- | --- | --- | --- | --- | --- | --- | --- | --- | --- |
| C[C@H]1O[C@H](O[C@H]2[C@H](O)[C@@H](O)[C@@H](O[C@H]3[C@H](O)[C@@H](O)C(O)O[C@@H]3CO)O[C@@H]2CO)[C@H](O)[C@@H](O)[C@@H]1N[C@H]1C=C(CO)[C@@H](O)[C@H](O)[C@H]1O (some centres unmarked) [Acarbose, reference compound] |  |  |  |  |  |  |  |  |  |  |  |  |  |  |  |  | %Inhibition alpha amylase (α-amylase; positive control Acarbose 50 µg/ml, Mean ± SD): 92.23 ± 1.08% |
| CC(=O)Nc1ccc(S(=O)(=O)N2CC(=O)NC2=S)cc1 [FP1, N-[4-(4-oxo-2-sulfanylideneimidazolidine-1-sulfonyl)phenyl]acetamide] | negligible cytotoxicity; also recorded: Non-toxic | > 1000 ± 0.0 | > 900 | lack of inhibition | 12.5 ± 1.1 | 24.7 ± 1.8 | 38.1 ± 2.3 | 51.5 ± 2.7 | 58.9 ± 2.9 | 63.4 ± 3.0 | 67.3 ± 3.2 | 45.7 ± 1.12 | 310.3 ± 10.7 | 245.9 ± 8.2 | mild but significant activity |  | lipid profile effect in words [1]: marginal effects; IC₅₀ (concentration required to inhibit 50% of DPPH free radicals) [2]: 76.5 ± 2.9 µg/mL; BW (Day 0) ([3]; Day 0, baseline): 217.5 ± 8.3 g; FBG (Day 0) ([3]; Day 0, baseline): 282.8 ± 10.3 mg/dL; % Change in BW ([3]; Day 0 to Day 42): −8.7%; % Reduction in FBG ([3]; Day 0 to Day 42): 17.6%; BW (Day 42) ([3]; Day 42 of treatment): 198.6 ± 7.8 g; FBG (Day 42) ([3]; Day 42 of treatment): 232.9 ± 9.7 mg/dL; HbA1C ([3]; end of 6-week treatment): 8.1% and 8.1 ± 0.4% |
| Cc1ccc(S(=O)(=O)N2CC(=O)NC2=S)cc1 [FP3, 1-(4-methylbenzene-1-sulfonyl)−2-sulfanylideneimidazolidin-4-one] | Low cytotoxicity |  | 722 ± 15.3 (≈ 2670 µM) | lack of inhibition | 9.2 ± 0.9 | 18.5 ± 1.4 | 27.9 ± 1.8 | 38.3 ± 2.1 | 45.7 ± 2.3 | 51.2 ± 2.5 | 55.8 ± 2.7 |  | 320.8 ± 11.3 | 255.7 ± 9.0 | minor reductions | inactive | inhibition at 200 µg/mL ([4]; sample concentration 200 µg/ml, Mean ± SD): 29.4 ± 1.08% |
| O=C1CN(S(=O)(=O)c2cc(C(=O)O)ccc2Cl)C(=S)N1 [FP7, 4-chloro-3-(4-oxo-2-sulfanylideneimidazolidine-1-sulfonyl)benzoic acid] | negligible cytotoxicity; also recorded: Non-toxic | > 1000 ± 0.0 | > 900 | lack of inhibition | 7.6 ± 0.7 | 14.8 ± 1.0 | 21.5 ± 1.4 | 30.2 ± 1.8 | 39.5 ± 2.0 | 43.7 ± 2.3 | 47.2 ± 2.5 | 27.3 ± 0.91 | 325.0 ± 11.6 | 258.2 ± 9.4 | minor reductions | inactive |  |
